The values below come from US9526739B2, “Compositions and methods to treat cardiac diseases” (University of Connecticut, priority 2010, dated 2016).

The subject of series [1] is control 1321N1 astrocytoma cells. The experiment in a line: Intracellular Ca2+ response in control 1321N1 astrocytoma cells. The series is classed as cell-based, human. The following applies: 10 μM, untransfected control 1321N1 astrocytoma cells.
In series [2] the test system is CSQ heart failure mice. The experiment in a line: Echocardiography-derived fractional shortening in CSQ heart failure mice after 28 days of subcutaneous minipump infusion. The note with it: for FS in % in CSQ Mice: at 3.3 μM, subcutaneous Alzet minipump infusion, 28 days, vehicle control 13.78 ± 1.19% (n = 16); for cardioprotection in the CSQ model (in words) / effect on echocardiography-derived FS / cardiac contractile function versus normal saline (in words): 3.3 μM, 28 days of infusion, CSQ mice. The series is classed as in vivo, mouse. From the text: Two of the phosphonates, 4 and 9, were able to cause an improved FS as compared to vehicle (FIG. 1, Table 1) and in comparison to the reference nucleotide 3. […] Thus, in the saturated phosphonate series, the orientation of the phosphorous relative to the methanocarba ring was somewhat structurally permissive, although inclusion of an olefin in the spacer prevented the cardioprotective action. In 11, one OH group of the phosphonate has been replaced with CH3. This reduces the overall charge on the molecule and is intended to make it more bioavailable. Evidently, the binding site of the receptor requires both oxygens for the most favorable improvement in FS. Therefore, as summarized in FIG. 1, the most significant improvement in FS was associated with the saturated homologues containing a 2-Cl substitution and an unmodified phosphonate group, 4 and 9.
Compound 3 and its analogues were dissolved in phosphate-buffered saline, pH=7.4 at 3.3 μM (200 μL total volume), filtered for sterility for in vivo administration at 6 μL per day for 28 days via a mini-osmotic pump (Alzet) in the CSQ mice. Intact heart function in vivo was assessed by echocardiography following infusion of nucleotide- or vehicle

The target in series [3] is T1, human P2Y1 receptor (Homo sapiens, UniProt P47900).
T1 construct: T. K. Harden, University of North Carolina School of Medicine; host or cells: 1321N1 human astrocytoma cells
T1 sequence (P47900 whole entry): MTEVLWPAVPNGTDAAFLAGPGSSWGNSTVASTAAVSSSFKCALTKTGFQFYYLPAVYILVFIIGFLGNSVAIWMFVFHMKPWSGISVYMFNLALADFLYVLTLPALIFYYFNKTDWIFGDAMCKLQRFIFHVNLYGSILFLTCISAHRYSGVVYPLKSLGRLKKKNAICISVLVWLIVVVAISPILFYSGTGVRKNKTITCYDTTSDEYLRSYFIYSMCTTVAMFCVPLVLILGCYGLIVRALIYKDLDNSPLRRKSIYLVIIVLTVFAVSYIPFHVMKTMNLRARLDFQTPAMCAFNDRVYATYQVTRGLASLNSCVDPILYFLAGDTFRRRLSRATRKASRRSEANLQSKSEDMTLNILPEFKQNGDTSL
The experiment in a line: FLIPR assay of calcium flux in 1321N1 astrocytoma cells stably expressing the human P2Y1 receptor. The series is classed as cell-based.
Description: The phosphonate derivatives were tested in a FLIPR assay of calcium flux induced in 1321N1 astrocytoma cells stably expressing the human P2Y1 receptor.
Cells were grown overnight in 100 ml of medium in 96-well flatbottom plates at 37° C. at 5% CO2 or until they reached ˜80% confluency. The calcium-4 assay kit (Molecular Devices, Sunnyvale, Calif.) was used as directed with no washing of cells. Cells were loaded with 40 mL dye with probenecid in each well and incubated for 1 h at rt. The compound plate was prepared with dilutions of various compounds in Hank's Buffer at pH 7.2. Samples were run in duplicate with a FLIPR-Tetra (Molecular Devices) at rt. Cell fluorescence (excitation=485 nm; emission=525 nm) was monitored following exposure to a compound. Increases in intracellular calcium are reported as the maximum fluorescence value after exposure minus the basal fluorescence value before exposure.

The nature of series [4]: Stability in aqueous medium at pH 1.5 (simulated stomach acid). The following applies: pH 1.5, over 24 hours. Type of series: physicochemical. From the text:
(§1) The synthetic nucleotide analogue 3 activates the native cardiac P2X receptor, as indicated in electrophysiological experiments with normal cardiac myocytes and those that overexpress CSQ and based on its in vivo ability to improve the heart failure phenotype of these animals. The rigid carbocyclic ring system contained in this derivative stabilizes nucleotides toward the action of nucleotidases. […] In the present study, we have synthesized fully hydrolysis-resistant adenosine monophosphate derivatives based on phosphonate linkages.

A short description of series [5]: Hydrolysis on incubation at 37° C. with mammalian cell membranes (1321N1 astrocytoma cells). The series is classed as in vitro ADME. The following applies: 1321N1 astrocytoma cell membranes.
Description: as §1
Further, the 5′-phosphate 3 and the prodrug 9a (MRS2944) are stable to acidic conditions representative of stomach acid (pH 1.5). […] Without being held to theory, it is believed that the prodrug approach will allow the masked drug to pass through the stomach to be absorbed intact in the intestines, and for the charged phosphoryl group to remain intact until the free drug reaches the site of action in the heart. Therefore, the stable phosphonates would be suitable in this scheme. The cleavage of the prodrug derivatives is to occur in circulation prior to reaching the tissue site of action, because intracellular internalization would be undesirable. Therefore, many of the prodrug schemes that aim for penetration of the masked drug into the cells, i.e. for antiviral or anticancer application of nucleotide derivatives, would likely not be suitable here.

Series [6] deals with T2, hP2Y1 receptor (Homo sapiens, UniProt P47900).
T2 construct: host or cells: said to be the same cell line as the calcium assay (1321N1 astrocytoma cells expressing hP2Y1)
T2 sequence (P47900 whole entry): as above
The following applies: initial characterization, previously reported; read-out: EC50, hP2Y1 receptor agonist, PLC; cited from earlier work.

Series [7] concerns aorta ring preparations. The note with it: cited from earlier work.
Series [8] relates to CSQ myocyte. The note with it: similar to that by compound 1, characteristic of the P2X4 receptor; cited from earlier work.
Series [9] deals with CSQ-overexpressing mouse. The following applies: cited from earlier work.
In series [10] the test system is CSQ heart failure mice. The experiment in a line: Echocardiography (FS, LV wall thickness) in CSQ heart failure mice after 14 days of infusion. The note with it: for cardioprotection in CSQ mice (in words) / effect on LV fractional shortening versus normal saline (in words): 14 days (two-week) infusion; for FS in % in CSQ Mice: at 10μM, 14 days of infusion, vehicle control 7.13 ± 1.49% (n = 4), phenotypically more severe CSQ mice than in Table 1; for prevention of LV wall thinning in heart failure (in words): two-week infusion.

In series [11] the test system is mouse cardiac myocytes. The following applies: voltage clamp; cited from earlier work.
[12] abbreviates: 2-week infusion, CSQ mice, NS-infused 0.450±0.007 mm, P<0.05.

Several values for one entry are separate records, joined by “and”; a condition that tells them apart may be missing. Equal entries are not always repeated. Entries after “also recorded” stand apart in the source; their conditions may differ.

Consider `CSc1nc(N)c2ncn([C@@H]3O[C@H](COP(=O)(O)OP(=O)(O)O)[C@@H](O)[C@H]3O)c2n1` [Compound 2-MeSADP, 2-MeSADP], for which the “change in intracellular Ca2+ in control cells” value in series [1] is on record as “no change in intracellular Ca^2+”.
Take `Nc1nc(Cl)nc2c1ncn2[C@H]1[C@H](O)[C@H](O)C2(COP(=O)(O)O)C[C@H]12` (stereo partly drawn) [Compound 3, (1′S, 2′R,3′S,4′R,5′S)-4-(6-amino-2-chloro-9H-purin-9-yl)-1-[phosphoryloxymethyl]bicyclo[3.1.0]hexane-2,3-diol]: in [2], the “FS in % in CSQ Mice” value turned out to be 15.47 ± 1.15%. The Emax in series [3] (1321-N1, read-out: maximal effect relative to the full agonist 2-MeSADP, hP2Y1 calcium flux) was roughly 80%. Further, the concentration giving a half-maximal response (EC50) was 722 ± 55 nM in series [3] (1321N1 cells stably expressing hP2Y1, FLIPR-Tetra, n=3, read-out: EC50, Ca2+ flux, hP2Y1 receptor) and 1890 nM in [6]. Also, the “stability to acidic conditions” value in series [4] is on record as “stable”. Moreover, the “hydrolysis in the presence of mammalian cell membranes” value in [5] is listed as “considerable hydrolysis”. Further, the vasodilator action result in [7] is listed as “inability to dilate aortic rings; also recorded: devoid of any vasodilator action”. The “current in the CSQ myocyte” value in series [8] was “induced a current”. In [9] (Alzet mini-osmotic pump), the “longevity compared to vehicle-injected mice” value is “significantly increased longevity”. Also, in [9] (chronic administration), the “cross-section area of the cardiac myocytes” value is reported as “decreases”. Besides, the “heart weight/body weight ratio” value in series [9] (chronic administration) was “decreases”. In addition, in series [9] (chronically administered), the “hypertrophic and heart failure phenotype” value was “rescued the hypertrophic and heart failure phenotype”.
Regarding `Nc1nc(Cl)nc2c1ncn2[C@H]1[C@H](O)[C@H](O)C2(CP(=O)(O)O)C[C@H]12` (stereo partly drawn) [Compound 4, (1′S,2′R,3′S,4′R,5′S)-4′-(6-Amino-2-chloropurin-9-yl)-2′,3′-(dihydroxy)-1′-(phosphonomethylene)-bicyclo[3.1.0]hexane], in [2], the “cardioprotection in the CSQ model (in words)” value is recorded as “active”; the “effect on echocardiography-derived FS / cardiac contractile function versus normal saline (in words)” value is “increased shortening of both the septum and left ventricular (LV) free wall; also recorded: able to improve in vivo cardiac contractile performance; also recorded: improved echocardiographically derived FS”; the “FS in % in CSQ Mice” value is 20.25% and 20.25 ± 1.19%.
`Nc1nc(Cl)nc2c1ncn2[C@H]1[C@H](O)[C@H](O)C2(CSP(=O)(O)O)C[C@H]12` (stereo partly drawn) [Compound 4a]: in [10] (setting [12]), the “LV posterior wall thickness” value is 0.493±0.016 mm and the “LV septal wall thickness” value is reported as 0.492±0.012 mm. In addition, the “cardioprotection in CSQ mice (in words)” value in series [10] (CSQ mice) is listed as “could protect the CSQ mice”. Besides, the “FS in % in CSQ Mice” value in series [10] turned out to be 14.33 ± 3.77%.
On to `Nc1ncnc2c1ncn2[C@H]1[C@H](O)[C@H](O)C2(CP(=O)(O)O)C[C@H]12` (stereo partly drawn) [Compound 5, (1′S,2′R,3′S,4′R,5′S)-4′-(6-Aminopurin-9-yl)-2′,3′-(dihydroxy)-1′-(phosphonomethylene)-bicyclo[3.1.0]hexane], for which, in series [2], the “FS in % in CSQ Mice” value is reported as 16.23 ± 0.93%.
Regarding `Nc1nc(Cl)nc2c1ncn2[C@H]1[C@H](O)[C@H](O)C2(/C=C/P(=O)(O)O)C[C@H]12` (stereo partly drawn) [Compound 7, (1′S,2′R,3′S,4′R,5′S)-4′-(6-Amino-2-chloropurin-9-yl)-2′,3′-(dihydroxy)-1′-[(E)-phosphonoethenyl]-bicyclo[3.1.0]-hexane], in [2], the “cardioprotection in the CSQ model (in words)” value is recorded as “not protective”, the “effect on echocardiography-derived FS / cardiac contractile function versus normal saline (in words)” value is “lower FS values” and the “FS in % in CSQ Mice” value came to 12.12 ± 1.2%. In series [10] (CSQ mice), the “effect on LV fractional shortening versus normal saline (in words)” value is recorded as “did not improve FS” and the “prevention of LV wall thinning in heart failure (in words)” value (shortened to “prevention of LV wall thinning”) is “did not improve FS or prevent LV wall thinning”.
`Nc1nc(I)nc2c1ncn2[C@H]1[C@H](O)[C@H](O)C2(CP(=O)(O)O)C[C@H]12` (stereo partly drawn) [Compound 7a, (1′S,2′R,3′S,4′R,5′S)-4′-(6-Amino-2-iodoropurin-9-yl)-2′,3′-(dihydroxy)-1′-(phosphonomethylene)-bicyclo[3.1.0]hexane]: in series [10] (CSQ mice), the “cardioprotection in CSQ mice (in words)” value is “abolished protection; also recorded: not protective”, the “effect on LV fractional shortening versus normal saline (in words)” value is on record as “did not improve FS; also recorded: lower FS values” and the “prevention of LV wall thinning” value was “did not improve FS or prevent LV wall thinning”. Also, the “FS in % in CSQ Mice” value in series [10] is listed as 10.33 ± 1.77%.
Consider `Nc1ncnc2c1ncn2[C@H]1[C@H](O)[C@H](O)C2(/C=C/P(=O)(O)O)C[C@H]12` (stereo partly drawn) [Compound 8, (1′S,2′R,3′S,4′R,5′S)-4′-(6-Aminopurin-9-yl)-2′,3′-(dihydroxy)-1′-[(E)-phosphonoethenyl]-bicyclo[3.1.0]hexane], for which, in series [2], the “cardioprotection in the CSQ model (in words)” value is on record as “not protective”, the “effect on echocardiography-derived FS / cardiac contractile function versus normal saline (in words)” value is “lower FS values” and the “FS in % in CSQ Mice” value is listed as 13.88 ± 2.12%.
Regarding `Nc1nc(Cl)nc2c1ncn2[C@H]1[C@H](O)[C@H](O)C2(CCP(=O)(O)O)C[C@H]12` (stereo partly drawn) [Compound 9], in [2], the “cardioprotection in the CSQ model (in words)” value is recorded as “clearly protective in vivo”; the “effect on echocardiography-derived FS / cardiac contractile function versus normal saline (in words)” value is reported as “improved FS; also recorded: able to enhance cardiac contractile function”; the “FS in % in CSQ Mice” value was 19.26% and 19.26 ± 1.23%.
In the case of `CCOP(=O)(CC12C[C@@H]1[C@@H](n1cnc3c(N)nc(Cl)nc31)[C@H](O)[C@@H]2O)OCC` (stereo partly drawn) [Compound 9a, Diethyl-(1′S,2′R,3′S,4′R,5′S)-4′-(6-amino-2-chloropurin-9-yl)-2′,3′-(hydroxy)-bicyclo[3.1.0]hexane phosphonate], the “stability to acidic conditions” value in series [4] was “stable”. Further, in series [5], the “hydrolysis in the presence of mammalian cell membranes” value is “considerable hydrolysis”. Further, in series [10] (CSQ mice), the “cardioprotection in CSQ mice (in words)” value was “not protective”, the “effect on LV fractional shortening versus normal saline (in words)” value is on record as “did not improve FS” and the “prevention of LV wall thinning” value was “did not improve FS or prevent LV wall thinning”. The “FS in % in CSQ Mice” value in [10] turned out to be 8.58 ± 2.09%.
For `Nc1ncnc2c1ncn2[C@H]1[C@H](O)[C@H](O)C2(CCP(=O)(O)O)C[C@H]12` (stereo partly drawn) [Compound 10], in series [2], the “cardioprotection in the CSQ model (in words)” value is listed as “not protective”, the “effect on echocardiography-derived FS / cardiac contractile function versus normal saline (in words)” value was “lower FS values; also recorded: did not improve the contractile function” and the “FS in % in CSQ Mice” value was found to be 11.15 ± 1.44%.
Consider `CP(=O)(O)CC12C[C@@H]1[C@@H](n1cnc3c(N)nc(Cl)nc31)[C@H](O)[C@@H]2O` (stereo partly drawn) [Compound 11, (1′S,2′R,3′S,4′R,5′S)-4′-(6-Amino-2-chloropurin-9-yl)-2′,3′-dihydroxy-1′-(methylphosphonicacid)-bicyclo[3.1.0]hexane], for which, in series [2], the “effect on echocardiography-derived FS / cardiac contractile function versus normal saline (in words)” value is recorded as “lower FS values” and the “FS in % in CSQ Mice” value is given as 15.0 ± 1.2%.
As to `CNc1nc(I)nc2c1ncn2[C@H]1C[C@H](OP(=O)(O)O)[C@]2(COP(=O)(O)O)C[C@H]12` [MRS2500], the “block of the membrane current evoked by 3” value in [11] is on record as “could not block the membrane current evoked by 3”.
